Measurements: patent publication US10912741B2, “Prevention of liver cancer with safranal-based formulations” (United Arab Emirates University, priority 2019, dated 2021)

Key:
[1] = test system: DNA fragmentation (TUNEL-positive cells); experiment: TUNEL assay of liver sections (apoptosis); format: in vivo, albino Wistar rats
Procedure: (§1) The experimental hepatocarcinogenesis model was developed according to a protocol by Espandiaria et al. that was adapted for our purposes. To initiate and promote hepatocarcinogenesis, diethylnitrosamine (DEN) and 2-acetylaminofluorene (2-AAF) were used, respectively. For hepatocarcinogenesis initiation in this model, a single DEN dose (200 mg/kg b.wt.) dissolved in saline was injected intraperitoneally. After initiation, all rats underwent one period of 5-days fasting, as mitotic proliferative stimuli. To promote hepatocarcinogenesis, 2-acetylaminofluorene (2-AAF) was introduced in the form of six daily intragastric doses (30 mg/kg in 1% Tween 80); two weeks after DEN treatment.
(§2) Safranal at doses of 25 mg/kg by weight (b.wt.) and 50 mg/kg b.wt, was administrated orally to rats. These doses have been reported to suppress chemically-induced oxidative damage in rats. A total of 40 adult male albino Wistar rats were randomly divided into […] (n=8) and were subjected to different treatments. Group 1 (control) was orally administered distilled water (5 ml/kg b.wt.) throughout the experimental duration and were injected with a single dose of saline. […]
TUNEL assay was performed for the purpose of assessing apoptosis. […] DNA fragmentation, a key indicator of apoptosis, is detected using this kit. […]

TNF-α = TNF-α level in serum by ELISA; format: in vivo, albino Wistar rats
Procedure: as §1, §2
TNF-α level in serum was quantitatively measured using Enzyme-Linked Immunosorbent Assay (ELISA), according to the manufacturer instructions (ELISA kits (R&D Systems), Minnesota, USA. Results are presented in picograms/milligrams.

[2] = test system: alveolar human lung cancer A549; conditions: A549 cell line, reported in the background; cited from earlier work
Malondialdehyde (MDA) = experiment: MDA level in liver homogenate, DEN/2-AAF hepatocarcinogenesis model; format: in vivo, albino Wistar rats; conditions: mean±SEM, 8 rats
Procedure: The experimental hepatocarcinogenesis model was developed according to a protocol by […] et al. that was adapted for our purposes. To initiate and promote hepatocarcinogenesis, diethylnitrosamine (DEN) and 2-acetylaminofluorene (2-AAF) were used, respectively. For hepatocarcinogenesis initiation in this model, a single DEN dose (200 mg/kg b.wt.) dissolved in saline was injected intraperitoneally. After initiation, all rats underwent one period of 5-days fasting, as mitotic proliferative stimuli. To promote hepatocarcinogenesis, 2-acetylaminofluorene (2-AAF) was introduced in the form of six daily intragastric doses (30 mg/kg in 1% Tween 80); two weeks after DEN treatment. […] at doses of 25 mg/kg by weight (b.wt.) and 50 mg/kg b.wt, was administrated orally to rats. These doses have been reported to suppress chemically-induced oxidative damage in rats. A total of 40 adult male albino Wistar rats were randomly divided into […] (n=8) and were subjected to different treatments. Group 1 (control) was orally administered distilled water (5 ml/kg b.wt.) throughout the experimental duration and were injected with a single dose of saline. Group 2 ([…] only) was subjected to a safranal dose (50 mg/kg b.wt.) through oral administration for the duration of the experimental period. Hepatocarcinogenesis was induced by DEN and promoted by 2-AAF, as reported previously, in group 3 (HCC). […] Glutathione (GSH) content was determined by analyzing liver homogenates, according to the method of Van Dooran et al. The assay depends on measuring yellow 5-thiol-2-nitrobenzoate absorbance at 412 nm. Glutathione-S-transferase (GST) activity was determined using the method of Habig et al. GST catalyzes the conjugation of GSH thiol group with 1-Chloro-2,4-dinitrobenzene (CDNB), which can be measured by determining the increase in absorbance at 340 nm. […] CAT decomposes hydrogen peroxide (H2O2) to oxygen and water; therefore, the activity of CAT was evaluated according to by the exponential decomposition of H2O2 at 240 nm. […] UV-160-Shimadzu recording spectrophotometer was used to record absorbances. […]

For CC1=C(C=O)C(C)(C)CC=C1 [Safranal, 2,6,6-trimethylcyclohexa-1,3-diene-1-carbaldehyde], the “number of TUNEL-positive cells” value ([1]; low/high doses of safranal in animals exposed to DEN, compared to group 3) was “significant increase in the number of both TUNEL- and M30 CytoDeath-positive cells”, the “number of TUNEL-positive cells” value ([1]; safranal only (group 2), compared to control group) was “did not exhibit a notable change” and the “TNF-α level in serum” value (TNF-α; low/high doses of safranal after DEN exposure (groups 4-5)) was “significant reduction in TNF-α expression”. The “TNF-α level in serum” value (TNF-α; safranal alone (group 2), vs control group) was “no significant impact”, the apoptosis [2] was “induce apoptosis” and the MDA (Malondialdehyde (MDA); HCC (DEN/2-AAF) rats + safranal high dose 50 mg/kg b.wt. oral, 12 weeks) was 0.63 ± 0.03 nmol/mg protein. The MDA (Malondialdehyde (MDA); HCC (DEN/2-AAF) rats + safranal low dose 25 mg/kg b.wt. oral, 12 weeks) was 0.61 ± 0.02 nmol/mg protein and the MDA (Malondialdehyde (MDA); safranal alone 50 mg/kg b.wt. oral, no DEN (group 2)) was 0.64 ± 0.02 nmol/mg protein.
